Test results from patent publication US12599676B2, “Cytotoxic imidazo[1,2-A]pyridine compounds and their use in therapy” (MyricX Pharma Limited, priority 2022, dated 2026).

Tests used:
[1] = Body weight in BT474 xenograft study; assay type: in vivo, NOD/SCID mice; conditions: trastuzumab or ADC Example 1 2.5 or 5 mg/kg; Example 12 2 mg/kg (Group 6)
Protocol: During the study, body weights were measured three times weekly for all animals. Animals were given Diet Gel for the entire duration on the study.

[2] = system: HT1080 (human fibrosarcoma); assay: Cell cytotoxicity CellTiter-Glo, HT1080; assay type: cell-based; conditions: HT-1080
Protocol: (§1) Cells were seeded in 96-well microplates and treated with compounds or cisplatin (as a positive control) at 9 increasing concentrations in technical triplicate. […] On day 1, 90 μL of various cell suspensions with the number of cells ranging from 5000-8000 cells/well were seeded into wells of a 96-well plate (Corning). The number of cells to be seeded was previously determined. • 2. All 96-wells plates with cells were placed in an incubator overnight at 37° C. with 5% CO2. • 3. On day 2, cells were observed under a microscope ensuring the cells treated with vehicle control were in good condition. • 4. A dilution series of the test compounds and cisplatin were prepared at 10× the final concentrations required. 10 μL/well of 10× compound solution was added to the corresponding plates. The final volume was 100 μL/well for all the plates. Final DMSO concentration was 0.1%. • 5. On day 5 (after 72 hours of incubation), 50 μL of CTG reagent was added to each well. • 6. Contents were mixed for 5 minutes on an orbital shaker to facilitate cell lysis. • 7. The plate was allowed to incubate at room temperature for 10 minutes to stabilize luminescent signals. […]

[3] = system: CA46 (human B cell lymphoma); assay: Cell cytotoxicity CellTiter-Glo, CA46; assay type: cell-based
Protocol: as §1

[4] = system: RKO (human colon carcinoma); assay: Cell cytotoxicity CellTiter-Glo, RKO; assay type: cell-based
Protocol: as §1

[5] = system: NCI-H1703 (human lung squamous cell carcinoma); assay: Cell cytotoxicity CellTiter-Glo, NCI-H1703; assay type: cell-based
Protocol: as §1

[6] = system: MX-1 (human breast carcinoma); assay: Cell cytotoxicity CellTiter-Glo, MX-1; assay type: cell-based; conditions: MX1
Protocol: as §1

[7] = system: DU4475 (human breast carcinoma); assay: Cell cytotoxicity CellTiter-Glo, DU4475; assay type: cell-based; conditions: DU-4475
Protocol: as §1

mouse hepatocytes = assay: Hepatocyte metabolic stability, mouse; assay type: in vitro ADME
Protocol: Biological Example 6: Rat hepatocyte half life Certain Example compounds and Comparator Compound 1 were tested for metabolic stability in a metabolic assay using mouse- and rat-derived hepatocytes. Compounds having good metabolic stability in the assay are expected to be especially useful as agents for preventing and/or treating cancer, by having a long half-life in human patients.
Frozen pooled rat and mouse hepatocytes obtained from LifeTechnologies were thawed and purified according to the manufacturer's instructions. The test compound (4 mM) in DMSO was diluted with acetonitrile to provide a 100 μM sub-stock then further diluted with pH 7.4 Krebs-Henseleit buffer (supplemented with CaCl2, NaHCO3, HEPES, fructose and glycine) to provide a 2 μM working solution. 25 μL of working solution was incubated at 37° C., treated with 25 μL of rat or mouse hepatocyte suspension (containing 1×10^6 cells/mL) and incubated at 37° C. with 5% CO2 level at 95% relative humidity. Wells were incubated for an appropriate time (0, 15, 30, 45, 60 and 75 min) then quenched with 250 μL of acetonitrile containing reference standards diltiazem, 7-ethoxycoumarin and propranolol). The plates were shaken, sonicated for 5 min then cooled to 4° C. until all sampling was complete. All plates were centrifuged at 4000 rpm for 20 min to pellet the debris. 110 μL supernatant was diluted 110 μL water and quantitated using LC-MS/MS.
A linear regression curve was fitted to a plot of natural logarithm (In) of AUC against time. The T-half (min)=0.693/slope

SMILES | body weights compared to vehicle control [1] | IC50 [2] | IC50 [3] | IC50 [4] | IC50 [5] | IC50 [6] | IC50 [7] | mHeps t^1/2 (mouse hepatocytes)
CNCc1cnc2ccc(-c3ccc(F)c(F)c3OCCc3c(C(O)C(C)(C)C)nn(C)c3C)cn12 (single isomer, unassigned) [Example 12, 1-(4-(2-(2,3-difluoro-6-(3-((methylamino)methyl)imidazo[1,2-a]pyridin-6-yl)phenoxy)ethyl)-1,5-dimethyl-1H-pyrazol-3-yl)-2,2-dimethylpropan-1-ol] | decreased significantly |  |  |  |  |  |  | 
Cc1c(CCOc2cc(Cl)ccc2-c2ccc3ncc(CCN)n3c2)c(C(=O)N(C)C)nn1C [Comparator Compound 1, 4-(2-{2-[3-(2-aminoethyl)imidazo[1,2-a]pyridin-6-yl]-5-chlorophenoxy}ethyl)-N,N,1,5-tetramethyl-1H-pyrazole-3-carboxamide, reference compound] |  | 6.4 nM | 613 nM | 96 nM | 82 nM | 40 nM | > 1000 nM | 127.68 min
